Experimental data from patent US20230107941A1, “HEPATITIS B CAPSID ASSEMBLY MODULATORS” (Venatorx Pharmaceuticals, Inc., priority 2019, published 2023).

Columns and labels:
[1] = tested on: HBV; assay: In vitro antiviral assay: anti-HBV replication in HepAD38 cells (extracellular HBV DNA by QPCR); assay type: cell-based, hepatitis B virus (genotype D, serotype ayw); conditions: Hepatitis B virus, HePAD38, 168 h, 7 days incubation, extracellular HBV DNA by QPCR, read-out: Anti-HBV EC50
Summary of the method: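 Read-out is extracellular HBV DNA (copies/mL, QPCR standard curve) after 7-day exposure of tet-free HepAD38 cells to 10-fold dilutions from 1 μM down to 10 pM. Values normalised to DMSO vehicle; EC50 from 4-parameter nonlinear regression, with entecavir validating each run.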

[2] = In vitro cytotoxicity assay (MTT cell viability) in HepG2 cells; assay type: cell-based, human; conditions: human
Summary of the method: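 CC50 was derived by 4-parameter fit of viability relative to vehicle controls, measured as MTT formazan absorbance at 492 nm after 3–4 h of reagent and DMSO solubilization. Before that, HepG2 cells seeded overnight at 20,000/well were incubated 7 days at 37°C with compound from 30 μM down to 1.0 nM in half-log steps.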

Structure (SMILES)	EC50 [1]	CC50 at 7 days [2]
Cc1cc(NC(=O)c2c(C3CC3)c(C(=O)C(=O)N[C@]3(C)CC[C@@H](O)CC3)n(C)c2C)ccc1F [Example 102, 4-cyclopropyl-N-(4-fluoro-3-methylphenyl)-5-(2-(((1r,4r)-4-hydroxy-1-methylcyclohexyl)amino)-2-oxoacetyl)-1,2-dimethyl-1H-pyrrole-3-carboxamide]	< 0.05 µM	> 30 µM
CCN(C(=O)C(=O)c1c(C)c(C(=O)Nc2ccc(F)c(C)c2)c(C)n1C)C(C)C [Example 186, 5-(2-(ethyl(isopropyl)amino)-2-oxoacetyl)-N-(4-fluoro-3-methylphenyl)-1,2,4-trimethyl-1H-pyrrole-3-carboxamide]	0.5 to 1 µM	> 30 µM
Cc1c(C(=O)NC2COCCOC2)c(C)n(C)c1C(=O)C(=O)NC(C)(C)C [Example 48, 5-(2-(tert-butylamino)-2-oxoacetyl)-N-(1,4-dioxepan-6-yl)-1,2,4-trimethyl-1H-pyrrole-3-carboxamide]	> 1 µM	> 30 µM
Cc1cc(NC(=O)c2c(C)c(C(=O)C(=O)N[C@H]3CC[C@@H](S(C)(=O)=O)CC3)n(C)c2CC2CC2)ccc1F [Example 124, 2-(cyclopropylmethyl)-N-(4-fluoro-3-methylphenyl)-1,4-dimethyl-5-(2-(((1s,4s)-4-(methylsulfonyl)cyclohexyl)amino)-2-oxoacetyl)-1H-pyrrole-3-carboxamide]	0.05 to 0.499 µM	> 30 µM
CCc1c(C(=O)Nc2ccc(F)c(C)c2)c(C)n(C)c1C(=O)C(=O)N[C@H]1CC[C@@H](S(C)(=O)=O)CC1 [Example 89, 4-ethyl-N-(4-fluoro-3-methylphenyl)-1,2-dimethyl-5-(2-(((1s,4s)-4-(methylsulfonyl)cyclohexyl)amino)-2-oxoacetyl)-1H-pyrrole-3-carboxamide]	< 0.05 µM	> 30 µM
Cc1cccc(NC(=O)c2c(C)c(C(=O)C(=O)NC(C)(C)C)n(C)c2C)c1F [Example 66, 5-(2-(tert-butylamino)-2-oxoacetyl)-N-(2-fluoro-3-methylphenyl)-1,2,4-trimethyl-1H-pyrrole-3-carboxamide]	< 0.05 µM	> 30 µM
Cc1c(C(=O)Nc2cc(Cl)nc(Cl)c2)c(C)n(C)c1C(=O)C(=O)N[C@H]1CC[C@@H](O)CC1 [Example 2, N-(2,6-dichloropyridin-4-yl)-5-(2-(((1s,4s)-4-hydroxycyclohexyl)amino)-2-oxoacetyl)-1,2,4-trimethyl-1H-pyrrole-3-carboxamide]	< 0.05 µM	> 30 µM
Cc1cc(NC(=O)c2c(C)c(C(=O)C(=O)Nc3ccccc3N3CCOCC3)n(C)c2C)ccc1F [Example 52, N-(4-fluoro-3-methylphenyl)-1,2,4-trimethyl-5-(2-((2-morpholinophenyl)amino)-2-oxoacetyl)-1H-pyrrole-3-carboxamide]	0.05 to 0.499 µM	5 to 30 µM
Cc1cc(NC(=O)c2c(C)c(C(=O)C(=O)NCC(C)(C)O)n(C)c2C2CC2)ccc1F [Example 130, 2-cyclopropyl-N-(4-fluoro-3-methylphenyl)-5-(2-((2-hydroxy-2-methylpropyl)amino)-2-oxoacetyl)-1,4-dimethyl-1H-pyrrole-3-carboxamide]	< 0.05 µM	5 to 30 µM
Cc1c(C(=O)Nc2cc(F)c(F)c(F)c2)c(C)n(C)c1C(=O)C(=O)N[C@]1(C)CC[C@@H](O)CC1 [Example 25, 5-(2-(((1r,4r)-4-hydroxy-1-methylcyclohexyl)amino)-2-oxoacetyl)-1,2,4-trimethyl-N-(3,4,5-trifluorophenyl)-1H-pyrrole-3-carboxamide]	< 0.05 µM	> 30 µM
Cc1cc(NC(=O)c2c(C)c(C(=O)C(=O)N[C@H]3CC[C@@H](OCC(=O)NCCOCCOCCOCCOCCOCCOCCOCCNC(=O)CCCCC4SCC5NC(=O)NC54)CC3)n(C)c2C)ccc1F (some centres unmarked) [Example 121, 5-(2-(((1s,4s)-4-((2,28-dioxo-32-(2-oxohexahydro-1H-thieno[3,4-d]imidazol-4-yl)-6,9,12,15,18,21,24-heptaoxa-3,27-diazadotriacontyl)oxy)cyclohexyl)amino)-2-oxoacetyl)-N-(4-fluoro-3-methylphenyl)-1,2,4-trimethyl-1H-pyrrole-3-carboxamide]	> 1 µM	> 30 µM
Cc1cc(NC(=O)c2c(C)c(C(=O)C(=O)N[C@]3(C)CC[C@H](O)CC3)n(C)c2C(C)C)ccc1F [Example 111, N-(4-fluoro-3-methylphenyl)-5-(2-(((1s,4s)-4-hydroxy-1-methylcyclohexyl)amino)-2-oxoacetyl)-2-isopropyl-1,4-dimethyl-1H-pyrrole-3-carboxamide]	< 0.05 µM	> 30 µM
CC(=O)N1CC[C@@H](NC(=O)C(=O)c2c(C)c(C(=O)Nc3ccc(F)c(C)c3)c(C)n2C)[C@H](F)C1 [Example 147, 5-(2-(((3R,4R)-1-acetyl-3-fluoropiperidin-4-yl)amino)-2-oxoacetyl)-N-(4-fluoro-3-methylphenyl)-1,2,4-trimethyl-1H-pyrrole-3-carboxamide]	< 0.05 µM	> 30 µM
Cc1c(C(=O)Nc2ccc(N3CCOCC3)nc2)c(C)n(C)c1C(=O)C(=O)NC(C)(C)C [Example 62, 5-(2-(tert-butylamino)-2-oxoacetyl)-1,2,4-trimethyl-N-(6-morpholinopyridin-3-yl)-1H-pyrrole-3-carboxamide]	> 1 µM	> 30 µM
Cc1cc(NC(=O)c2c(C)c(C(=O)C(=O)N[C@]3(C)C[C@H](O)C3)n(C)c2-c2ccncc2)ccc1F [Example 161, N-(4-fluoro-3-methylphenyl)-5-(2-(((1s,3s)-3-hydroxy-1-methylcyclobutyl)amino)-2-oxoacetyl)-1,4-dimethyl-2-(pyridin-4-yl)-1H-pyrrole-3-carboxamide]	> 1 µM	> 30 µM
Cc1c(C(=O)Nc2ccc(F)c(F)c2)c2n(c1C(=O)C(=O)N[C@@H]1COC[C@H]1N1CCOCC1)CCCC2 [Example 37, N-(3,4-difluorophenyl)-2-methyl-3-(2-(((3S,4S)-4-morpholinotetrahydrofuran-3-yl)amino)-2-oxoacetyl)-5,6,7,8-tetrahydroindolizine-1-carboxamide]	0.05 to 0.499 µM	> 30 µM
Cc1c(C(=O)NCc2noc(C(F)(F)F)n2)c(C)n(C)c1C(=O)C(=O)NC(C)(C)C [Example 58, 5-(2-(tert-butylamino)-2-oxoacetyl)-1,2,4-trimethyl-N-((5-(trifluoromethyl)-1,2,4-oxadiazol-3-yl)methyl)-1H-pyrrole-3-carboxamide]	> 1 µM	> 30 µM
Cc1c(C(=O)Nc2cc(Cl)cc(Cl)c2)c(C)n(C)c1C(=O)C(=O)N[C@H](C)C(F)(F)F [Example 79, (R)-N-(3,5-dichlorophenyl)-1,2,4-trimethyl-5-(2-oxo-2-((1,1,1-trifluoropropan-2-yl)amino)acetyl)-1H-pyrrole-3-carboxamide]	< 0.05 µM	5 to 30 µM
Cc1c(C(=O)Nc2cc(Cl)nc(Cl)c2)c(C)n(C)c1C(=O)C(=O)N[C@]1(C)CC[C@H](O)CC1 [Example 11, N-(2,6-dichloropyridin-4-yl)-5-(2-(((1s,4s)-4-hydroxy-1-methylcyclohexyl)amino)-2-oxoacetyl)-1,2,4-trimethyl-1H-pyrrole-3-carboxamide]	< 0.05 µM	> 30 µM
Cc1c(C(=O)Nc2ccc(F)c(F)c2)c2n(c1C(=O)C(=O)NC1(C)CCN(C(=O)Nc3ccc(F)c(F)c3)CC1)CCCC2 [Example 33, N-(3,4-difluorophenyl)-3-(2-((1-((3,4-difluorophenyl)carbamoyl)-4-methylpiperidin-4-yl)amino)-2-oxoacetyl)-2-methyl-5,6,7,8-tetrahydroindolizine-1-carboxamide]	< 0.05 µM	0.5 to 4.99 µM
Cc1c(C(=O)Nc2ccc(F)c(Br)c2)c(C)n(C)c1C(=O)C(=O)N[C@]1(C)CC[C@@H](O)CC1 [Example 18, N-(3-bromo-4-fluorophenyl)-5-(2-(((1r,4r)-4-hydroxy-1-methylcyclohexyl)amino)-2-oxoacetyl)-1,2,4-trimethyl-1H-pyrrole-3-carboxamide]	< 0.05 µM	> 30 µM
Cc1cc(NC(=O)c2c(C)c(C(=O)C(=O)N[C@]3(C)C[C@H](O)C3)n(C)c2C(C)C)ccc1F [Example 109, N-(4-fluoro-3-methylphenyl)-5-(2-(((1s,3s)-3-hydroxy-1-methylcyclobutyl)amino)-2-oxoacetyl)-2-isopropyl-1,4-dimethyl-1H-pyrrole-3-carboxamide]	0.05 to 0.499 µM	> 30 µM
Cc1cc(NC(=O)c2c(C)c(C(=O)C(=O)N[C@@H]3CCCN(C(=O)Nc4ccc(F)c(F)c4)C3)n(C)c2C)ccc1F [Example 35, (R)-N-(3,4-difluorophenyl)-3-(2-(4-((4-fluoro-3-methylphenyl)carbamoyl)-1,3,5-trimethyl-1H-pyrrol-2-yl)-2-oxoacetamido)piperidine-1-carboxamide]	0.5 to 1 µM	5 to 30 µM
Cc1cc(NC(=O)c2c(C)c(C(=O)C(=O)N[C@]3(C)CC[C@H](O)CC3)n(C)c2-c2ccccn2)ccc1F [Example 157, N-(4-fluoro-3-methylphenyl)-5-(2-(((1s,4s)-4-hydroxy-1-methylcyclohexyl)amino)-2-oxoacetyl)-1,4-dimethyl-2-(pyridin-2-yl)-1H-pyrrole-3-carboxamide]	0.05 to 0.499 µM	> 30 µM
Cc1cc(NC(=O)c2c(C)c(C(=O)C(=O)NC3CCCN(CC(=O)O)C3)n(C)c2C)ccc1F (centres unmarked) [Example 172, 2-(3-(2-(4-((4-fluoro-3-methylphenyl)carbamoyl)-1,3,5-trimethyl-1H-pyrrol-2-yl)-2-oxoacetamido)piperidin-1-yl)acetic acid]	> 1 µM	> 30 µM
